Results published in patent publication US20110251160A1 (priority 2008, published 2011).
Like-named read-outs stand apart in the source and are kept apart here. Marks after values point to notes of the source that are not given here.

Tests used:
[1] = system: patients with atrial fibrillation
Experimental: PETRO-Ex began while the PETRO study was ongoing and investigators were initially kept blinded to patient treatment group until PETRO was completed. Unblinding investigators to patient treatment was possible thereafter.
Data were summarized descriptively; no hypothesis was to be tested. Events were analyzed on the basis of the treatment at onset. Incidences were reported as number of patients with events as well as normalized to 100 patient years on the respective treatment.
Patients who completed PETRO on 50 mg b.i.d. were switched to 150 mg q.d. upon entry in the PETRO-Ex study (N=93 patients). […] Patients who were down titrated to 50 mg q.d. based on a glomerular filtration rate ≦50 mL/min during PETRO were excluded from the long-term trial; patients down-titrated in other dose levels remained on the q.d. treatment at that dose.
The former is represented by the number of thromboembolic events per 100 years, the latter by the number of bleeding events per 100 years.

[2] = Clinical pharmacokinetics and pharmacodynamics of dabigatran etexilate; settings: in vivo
[3] = system: patients with chronic atrial fibrillation; assay: PETRO study, phase 2 12-week dose finding study; assay type: in vivo, human
Excerpt: Primary endpoints were bleeding events and changes in D-dimer. […] Minor bleeding was dose related.

[4] = Physical properties of dabigatran etexilate; assay type: physicochemical
[5] = system: cytochrome P-450 drug metabolizing enzymes; assay: Cytochrome P-450 interaction; assay type: in vitro ADME
[6] = 300 mg b.i.d., listed as dabigatran etexilate
[7] = PETRO-Ex, Dabigatran etexilate All doses
[8] = PETRO-Ex, including bleeding and thrombotic events

CCCCCCOC(=O)NC(=N)c1ccc(NCc2nc3cc(C(=O)N(CCC(=O)OCC)c4ccccn4)ccc3n2C)cc1 [Dabigatran etexilate, 1-methyl-2-[N-[4-(N-n-hexyloxycarbonylamidino)phenyl]aminomethyl]benzimidazol-5-ylcarboxylic acid-N-(2-pyridyl)-N-(2-ethoxycarbonylethyl)amides]
Adverse Events leading to premature discontinuation (rate) ([1]; 50 mg b.i.d.): 21.3 per 100 patient years
Other MACE (rate) ([1]; 50 mg b.i.d.): 8.5 per 100 patient years
Stroke and Systemic Thromboembolism (rate) ([1]; 50 mg b.i.d.): 12.8 per 100 patient years
Stroke and Systemic Thromboembolism (rate) ([1]; 50 mg b.i.d., listed as dabigatran etexilate): more than 12 per 100 patient years
ALT or AST >2xULN (rate) ([1]; 150 mg b.i.d.): 3.1 per 100 patient years
ALT or AST >3xULN (rate) ([1]; 150 mg b.i.d.): 1.9 per 100 patient years
ALT or AST >3xULN and Bili >2xULN within 30 days (rate) ([1]; 150 mg b.i.d.): 0.4 per 100 patient years
ALT or AST >5xULN (rate) ([1]; 150 mg b.i.d.): 1.0 per 100 patient years
Adverse Events leading to premature discontinuation (rate) ([1]; 150 mg b.i.d.): 9.8 per 100 patient years
Fatal major bleeds, number ([1]; 150 mg b.i.d.): 4
MI (rate) ([1]; 150 mg b.i.d.): 0.9 per 100 patient years
Major Bleeds (rate) ([1]; 150 mg b.i.d.): 4.2 per 100 patient years
Major Bleeds, of these with aspirin (rate) ([1]; 150 mg b.i.d.): 8.7 per 100 patient years
Major Bleeds, of these without aspirin (rate) ([1]; 150 mg b.i.d.): 3.2 per 100 patient years
Major bleeding events ([1]; 150 mg b.i.d.): 4.2 % per year
Other MACE (rate) ([1]; 150 mg b.i.d.): 1.0 per 100 patient years
Stroke and Systemic Thromboembolism (rate) ([1]; 150 mg b.i.d.): 1.0 per 100 patient years
TIA (rate) ([1]; 150 mg b.i.d.): 0.1 per 100 patient years
Thromboembolic events and stroke rate ([1]; 150 mg b.i.d.): 1 % per year
ALT or AST >2xULN (rate) ([1]; 150 mg q.d.): 3.4 per 100 patient years
Adverse Events leading to premature discontinuation (rate) ([1]; 150 mg q.d.): 13.7 per 100 patient years
Major Bleeds (rate) ([1]; 150 mg q.d.): 5.1 per 100 patient years
Major Bleeds, of these without aspirin (rate) ([1]; 150 mg q.d.): 6.5 per 100 patient years
Stroke and Systemic Thromboembolism (rate) ([1]; 150 mg q.d.): 5.1 per 100 patient years
Stroke and Systemic Thromboembolism (rate) ([1]; 150 mg q.d., listed as dabigatran etexilate): about 5 per 100 patient years
ALT or AST >2xULN (rate) ([1]; 300 mg b.i.d.): 4.9 per 100 patient years
ALT or AST >3xULN (rate) ([1]; 300 mg b.i.d.): 2.4 per 100 patient years
ALT or AST >5xULN (rate) ([1]; 300 mg b.i.d.): 1.2 per 100 patient years
Adverse Events leading to premature discontinuation (rate) ([1]; 300 mg b.i.d.): 25.6 per 100 patient years
Major Bleeds (rate) ([1]; 300 mg b.i.d.): 12.2 per 100 patient years
Major Bleeds, of these with aspirin (rate) ([1]; 300 mg b.i.d.): 32.7 per 100 patient years
Major Bleeds, of these without aspirin (rate) ([1]; 300 mg b.i.d.): 6.3 per 100 patient years
Major bleeding events ([1]; 300 mg b.i.d.): 12.2 % per year
Other MACE (rate) ([1]; 300 mg b.i.d.): 1.2 per 100 patient years
Stroke and Systemic Thromboembolism (rate) ([1]; 300 mg b.i.d.): 1.2 per 100 patient years
Thromboembolic events and stroke rate ([1]; 300 mg b.i.d.): 1.2 % per year
Major Bleeds (rate) [1, 6]: more than 12 per 100 patient years
Stroke and Systemic Thromboembolism (rate) [1, 6]: about 1 per 100 patient years
ALT or AST >2xULN (rate) ([1]; 300 mg q.d.): 1.5 per 100 patient years
ALT or AST >3xULN (rate) ([1]; 300 mg q.d.): 1.5 per 100 patient years
ALT or AST >3xULN and Bili >2xULN within 30 days (rate) ([1]; 300 mg q.d.): 0.5 per 100 patient years
ALT or AST >5xULN (rate) ([1]; 300 mg q.d.): 1.5 per 100 patient years
Adverse Events leading to premature discontinuation (rate) ([1]; 300 mg q.d.): 9.6 per 100 patient years
Fatal major bleeds, number ([1]; 300 mg q.d.): 1
MI (rate) ([1]; 300 mg q.d.): 0.5 per 100 patient years
Major Bleeds (rate) ([1]; 300 mg q.d.): 2.5 per 100 patient years
Major Bleeds, of these with aspirin (rate) ([1]; 300 mg q.d.): 3.6 per 100 patient years
Major Bleeds, of these without aspirin (rate) ([1]; 300 mg q.d.): 2.1 per 100 patient years
Major bleeding events ([1]; 300 mg q.d.): 2.5 % per year
Other MACE (rate) ([1]; 300 mg q.d.): 0.5 per 100 patient years
Stroke and Systemic Thromboembolism (rate) ([1]; 300 mg q.d.): 2.5 per 100 patient years
Stroke and Systemic Thromboembolism (rate) ([1]; 300 mg q.d., listed as dabigatran etexilate): more than 2 per 100 patient years
Tolerability ([1]; 300 mg twice daily): not tolerable
Serious adverse events: cardiac disorders ([1]; PETRO-Ex): 22%
Serious adverse events: cardiac disorders, pts ([1]; PETRO-Ex): 80
Serious adverse events: gastrointestinal disorders ([1]; PETRO-Ex): 7.8%
Serious adverse events: gastrointestinal disorders, pts ([1]; PETRO-Ex): 28
Serious adverse events: infections ([1]; PETRO-Ex): 9.4%
Serious adverse events: infections, pts ([1]; PETRO-Ex): 34
Serious adverse events: nervous system disorders ([1]; PETRO-Ex): 9.1%
Serious adverse events: nervous system disorders, pts ([1]; PETRO-Ex): 33
Stroke and systemic embolism (per 100 patient years) ([1]; PETRO-Ex, Dabigatran etexilate 150 mg b.i.d.): 1.0%
Major bleeding events (per 100 patient years) ([1]; PETRO-Ex, Dabigatran etexilate 150 mg b.i.d., without concomitant aspirin): 3.2%*
LFT abnormalities >3 xULN (per 100 patient years) [1, 7]: 1.7%
Myocardial Infarction [1, 7]: 0.7%
Serious adverse events [1, 8]: 51%
Serious adverse events, patients [1, 8]: 184
ALT or AST >2xULN (rate) ([1]; Total): 2.9 per 100 patient years
ALT or AST >3xULN (rate) ([1]; Total): 1.7 per 100 patient years
ALT or AST >3xULN and Bili >2xULN within 30 days (rate) ([1]; Total): 0.4 per 100 patient years
ALT or AST >5xULN (rate) ([1]; Total): 1.1 per 100 patient years
Adverse Events leading to premature discontinuation (rate) ([1]; Total): 11.5 per 100 patient years
MI (rate) ([1]; Total): 0.7 per 100 patient years
Major Bleeds (rate) ([1]; Total): 4.2 per 100 patient years
Major Bleeds, of these with aspirin (rate) ([1]; Total): 8.5 per 100 patient years
Major Bleeds, of these without aspirin (rate) ([1]; Total): 3.2 per 100 patient years
Other MACE (rate) ([1]; Total): 1.1 per 100 patient years
Stroke and Systemic Thromboembolism (rate) ([1]; Total): 1.9 per 100 patient years
TIA (rate) ([1]; Total): 0.1 per 100 patient years
Concomitant bilirubin elevation >2×ULN within 30 days of transaminase elevations >3×ULN ([1]; all doses): 0.4 % per year
Elevated liver transaminases, AST or ALT >3×ULN ([1]; all doses): 1.7 % per year
Fatal intracranial bleeds, number ([1]; all doses): Three
Fatal major bleeds, number ([1]; all doses): Five
Transaminases (AST or ALT) >5×ULN ([1]; all doses): 1.1 % per year
Major bleed rate ([1]; doses ≦150 mg/day (150 mg q.d. combined with 50 mg b.i.d.)): 3.7 % per year
Bleeding event rate ([1]; on concomitant aspirin): 8.5 % per year
Stroke or systemic thromboembolic event rates ([1]; the two highest doses): approximately 1 % per year
Bleeding event rate ([1]; without concomitant aspirin): 3.2 % per year
Annualized thromboembolic event rate ([1]; ≦150 mg/day): over 5.0 per 100 patient years
Food interactions [2]: no food interactions
Systemic thromboembolic events, number ([3]; 50 mg b.i.d. group): 2
Major bleeding events ([3]; 300 mg b.i.d. plus ASA groups): 6%
Major bleeding events, number ([3]; 300 mg b.i.d. plus ASA groups): Four
Minor bleeding ([3]; 50, 150 and 300 mg b.i.d.): dose related
Elevated transaminases >3×upper limit of normal (ULN) ([3]; dabigatran etexilate-treated patients, all doses): 0.9%
Elevated transaminases >3×upper limit of normal (ULN), number of patients ([3]; of 432 dabigatran etexilate-treated patients): 4
Hygroscopicity [4]: hygroscopic
Solubility in water [4]: sparingly soluble in water
Metabolism by, induction or inhibition of cytochrome P-450 [5]: not metabolized by and does not induce or inhibit cytochrome P-450 drug metabolizing enzymes
